The values below come from US9040533B2, “Oxime-substituted-quinoxaline-type piperidine compounds as ORL-1 modulators” (priority 2012, dated 2015).

Structures are written as SMILES. pIC50: −log10 of the molar value. Where only a bound is given, the exact number is not on record here.

Holding throughout (assay): biochemical
Experiment [1] concerns the target CYP2C9 (Homo sapiens, UniProt P11712).
Experiment [2] deals with CYP3A4 (Homo sapiens, UniProt P08684).
Experiment [3] addresses T1, CYP1A2 (Homo sapiens, UniProt P05177).
T1 sequence (P05177 1-516): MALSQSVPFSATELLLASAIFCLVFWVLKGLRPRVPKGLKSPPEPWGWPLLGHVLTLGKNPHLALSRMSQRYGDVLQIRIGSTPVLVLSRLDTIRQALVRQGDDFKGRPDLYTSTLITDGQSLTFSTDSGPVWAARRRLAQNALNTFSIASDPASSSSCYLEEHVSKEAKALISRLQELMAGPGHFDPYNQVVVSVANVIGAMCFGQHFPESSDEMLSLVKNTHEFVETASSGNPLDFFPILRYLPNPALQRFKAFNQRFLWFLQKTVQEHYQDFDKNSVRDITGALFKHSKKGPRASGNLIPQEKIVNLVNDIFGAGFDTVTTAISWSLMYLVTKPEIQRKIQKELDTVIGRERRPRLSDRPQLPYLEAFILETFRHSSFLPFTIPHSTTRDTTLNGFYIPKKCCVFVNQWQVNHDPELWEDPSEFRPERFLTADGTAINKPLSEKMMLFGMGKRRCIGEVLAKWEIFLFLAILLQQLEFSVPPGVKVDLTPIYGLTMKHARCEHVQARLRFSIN

Experiment [4] has as its target CYP2D6 (Homo sapiens, UniProt P10635).
Experiment [5] has as its target CYP2C19 (Homo sapiens, UniProt P33261).

Chain of CYP3A4 (P08684 whole entry): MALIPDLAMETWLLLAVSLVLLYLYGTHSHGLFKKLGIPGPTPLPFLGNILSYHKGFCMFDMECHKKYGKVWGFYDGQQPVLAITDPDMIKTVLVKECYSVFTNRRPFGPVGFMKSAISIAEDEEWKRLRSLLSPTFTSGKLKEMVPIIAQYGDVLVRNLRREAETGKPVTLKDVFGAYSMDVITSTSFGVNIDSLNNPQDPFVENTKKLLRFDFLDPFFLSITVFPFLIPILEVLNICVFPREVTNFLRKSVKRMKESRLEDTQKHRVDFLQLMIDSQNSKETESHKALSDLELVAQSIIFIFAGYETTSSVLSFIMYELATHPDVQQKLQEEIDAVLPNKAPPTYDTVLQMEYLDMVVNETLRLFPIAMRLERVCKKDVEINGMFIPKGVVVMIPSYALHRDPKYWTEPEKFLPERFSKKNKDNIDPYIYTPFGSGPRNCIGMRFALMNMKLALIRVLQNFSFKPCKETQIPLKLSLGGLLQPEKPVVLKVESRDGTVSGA
Chain of CYP2C19 (P33261 whole entry): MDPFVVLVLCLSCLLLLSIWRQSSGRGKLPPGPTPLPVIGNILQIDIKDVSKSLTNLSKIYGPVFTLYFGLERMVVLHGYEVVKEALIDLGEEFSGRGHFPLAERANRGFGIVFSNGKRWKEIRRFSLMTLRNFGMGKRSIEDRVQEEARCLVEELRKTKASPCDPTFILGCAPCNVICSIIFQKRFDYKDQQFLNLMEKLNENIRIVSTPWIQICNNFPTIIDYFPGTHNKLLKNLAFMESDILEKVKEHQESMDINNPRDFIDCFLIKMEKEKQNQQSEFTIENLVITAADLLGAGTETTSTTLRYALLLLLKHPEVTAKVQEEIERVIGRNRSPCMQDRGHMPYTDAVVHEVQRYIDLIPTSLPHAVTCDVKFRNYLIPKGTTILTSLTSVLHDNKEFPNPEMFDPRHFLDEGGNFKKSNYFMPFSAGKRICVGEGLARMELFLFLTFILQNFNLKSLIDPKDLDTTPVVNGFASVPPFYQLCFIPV
Chain of CYP2C9 (P11712 whole entry): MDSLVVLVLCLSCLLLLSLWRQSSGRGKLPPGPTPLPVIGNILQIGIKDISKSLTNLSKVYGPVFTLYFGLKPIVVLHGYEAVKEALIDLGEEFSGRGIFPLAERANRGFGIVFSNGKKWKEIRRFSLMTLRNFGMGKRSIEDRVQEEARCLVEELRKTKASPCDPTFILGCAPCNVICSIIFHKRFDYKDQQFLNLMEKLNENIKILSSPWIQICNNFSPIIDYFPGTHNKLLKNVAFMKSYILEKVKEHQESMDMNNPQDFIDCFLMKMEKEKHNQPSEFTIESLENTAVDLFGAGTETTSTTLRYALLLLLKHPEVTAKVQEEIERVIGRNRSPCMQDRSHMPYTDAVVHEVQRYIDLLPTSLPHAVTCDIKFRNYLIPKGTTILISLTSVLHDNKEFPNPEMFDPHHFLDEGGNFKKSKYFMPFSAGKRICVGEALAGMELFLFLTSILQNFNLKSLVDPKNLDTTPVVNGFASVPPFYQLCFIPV
Chain of CYP2D6 (P10635 whole entry): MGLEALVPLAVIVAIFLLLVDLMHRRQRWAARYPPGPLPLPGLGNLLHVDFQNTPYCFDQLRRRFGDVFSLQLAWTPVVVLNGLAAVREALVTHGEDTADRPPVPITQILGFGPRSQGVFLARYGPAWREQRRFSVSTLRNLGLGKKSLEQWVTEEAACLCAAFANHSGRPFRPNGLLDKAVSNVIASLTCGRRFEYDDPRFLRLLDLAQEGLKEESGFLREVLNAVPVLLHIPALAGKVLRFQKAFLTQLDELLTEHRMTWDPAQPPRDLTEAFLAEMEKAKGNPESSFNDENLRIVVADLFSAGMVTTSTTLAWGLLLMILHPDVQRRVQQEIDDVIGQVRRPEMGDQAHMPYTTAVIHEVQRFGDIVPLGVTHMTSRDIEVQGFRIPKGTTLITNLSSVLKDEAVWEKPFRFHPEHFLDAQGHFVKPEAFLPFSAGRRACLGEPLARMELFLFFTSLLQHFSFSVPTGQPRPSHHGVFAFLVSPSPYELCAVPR

With `CON=C(CCC(=O)O)c1nc2ccccc2n([C@H]2C[C@H]3CCC[C@@H](C2)N3C2CC3CCCC(C3)C2)c1=O` (stereo partly drawn) [Compound 2, 4-[4-((1R,3R)—(S)-9-bicyclo[3.3.1]non-3-yl-9-aza-bicyclo[3.3.1]non-3-yl)-3-oxo-3,4-dihydro-quinoxalin-2-yl]-4-methoxyimino-butyric acid], the pIC50 in experiment [1], in experiment [2], in experiment [3], in experiment [4] and in experiment [5] was under 4.70 in each case.
Consider `O=C(O)CCC(=NOCCO)c1nc2ccccc2n([C@H]2C[C@H]3CCC[C@@H](C2)N3C2CC3CCCC(C3)C2)c1=O` (stereo partly drawn) [Compound 3, 4-[4-((1R,3R)—(S)-9-Bicyclo[3.3.1]non-3-yl-9-aza-bicyclo[3.3.1]non-3-yl)-3-oxo-3,4-dihydro-quinoxalin-2-yl]-4-(2-hydroxy-ethoxyimino)-butyric acid], for which the pIC50 in experiment [1], in experiment [2], in experiment [3], in experiment [4] and in experiment [5] was under 4.70 each time.
In the case of `O=C(O)/C(=N\OCCO)c1nc2ccccc2n([C@H]2C[C@H]3CCC[C@@H](C2)N3C2CC3CCCC(C3)C2)c1=O` (stereo partly shown) [Compound 4], the pIC50 in experiment [1], in experiment [2], in experiment [3], in experiment [4] and in experiment [5] was under 4.70 each time.
Regarding `CCN(CC)C(=O)CO/N=C(\C(=O)O)c1nc2ccccc2n([C@H]2C[C@H]3CCC[C@@H](C2)N3C2CC3CCCC(C3)C2)c1=O` (stereo partly drawn) [Compound 5, [4-((1R,3R,7S)-9-bicyclo[3.3.1]non-3-yl-9-aza-bicyclo[3.3.1]non-3-yl)-3-oxo-3,4-dihydro-quinoxalin-2-yl]-diethylcarbamoylmethoxyimino-acetic acid], the pIC50 in experiment [1], in experiment [2], in experiment [3], in experiment [4] and in experiment [5] was under 4.70 in each case.
With `O=C(O)CCC(=NO)c1nc2ccccc2n([C@H]2C[C@H]3CCC[C@@H](C2)N3C2CC3CCCC(C3)C2)c1=O` (stereo partly drawn) [Compound 7, 4-[4-((1R,3R)—(S)-9-bicyclo[3.3.1]non-3-yl-9-aza-bicyclo[3.3.1]non-3-yl)-3-oxo-3,4-dihydro-quinoxalin-2-yl]-4-hydroxyimino-butyric acid], the pIC50 in experiment [1], in experiment [2], in experiment [3], in experiment [4] and in experiment [5] was under 4.70 each time.
Take `CO/N=C(\CCC(=O)O)c1nc2ccccc2n([C@H]2C[C@H]3CCC[C@@H](C2)N3C2CCCCCCCCC2)c1=O` [Compound 9, 4-[4-((1R,3R,7S)-9-cyclodecyl-9-aza-bicyclo[3.3.1]non-3-yl)-3-oxo-3,4-dihydro-quinoxalin-2-yl]-4-methoxyimino-butyric acid]: the pIC50 in experiment [1], in experiment [2], in experiment [3], in experiment [4] and in experiment [5] was under 4.70 throughout.
Take `CCO/N=C(\CCC(=O)O)c1nc2ccccc2n([C@H]2C[C@H]3CCC[C@@H](C2)N3C2CC3CCCC(C3)C2)c1=O` (stereo partly drawn) [Compound 11, 4-[4-((1R,3R,7S)-9-bicyclo[3.3.1]non-3-yl-9-aza-bicyclo[3.3.1]non-3-yl)-3-oxo-3,4-dihydro-quinoxalin-2-yl]-4-ethoxyimino-butyric acid]: the pIC50 in experiment [1], in experiment [2], in experiment [3], in experiment [4] and in experiment [5] was under 4.70 each time.
Consider `CON=C(CCC(=O)O)c1nc2ccccc2n([C@H]2C[C@H]3CC[C@@H](C2)N3C2CC3CCCCC(C3)C2)c1=O` (stereo partly drawn) [Compound 12, 4-(4-((1R,3R)-8-(bicyclo[4.3.1]decan-8-yl)-8-azabicyclo[3.2.1]octan-3-yl)-3-oxo-3,4-dihydroquinoxalin-2-yl)-4-(methoxyimino)butanoic acid], for which the pIC50 in experiment [1], in experiment [2], in experiment [3], in experiment [4] and in experiment [5] was under 4.70 each time.
`O=C(O)C(=NOCCO)c1nc2ccccc2n([C@H]2C[C@H]3CCC[C@@H](C2)N3C2CC3CCCCC(C3)C2)c1=O` (stereo partly shown) [Compound 15]: the pIC50 in experiment [1], in experiment [2], in experiment [3], in experiment [4] and in experiment [5] was under 4.70 throughout.
`C/C(=N\OCC(=O)O)c1nc2ccccc2n([C@H]2C[C@H]3CCC[C@@H](C2)N3C2CC3CCCC(C3)C2)c1=O` (stereo partly shown) [Compound 16]: the pIC50 in experiment [1], in experiment [2], in experiment [3], in experiment [4] and in experiment [5] was under 4.70 each time.
Regarding `CON=C(C(=O)O)c1nc2ccccc2n([C@H]2C[C@H]3CCC[C@@H](C2)N3C2CC3CCCCC(C3)C2)c1=O` (stereo partly shown) [Compound 17], the pIC50 in experiment [1], in experiment [2], in experiment [3], in experiment [4] and in experiment [5] was under 4.70 in each case.
With `O=C(O)CCC(=NO)c1nc2ccccc2n([C@H]2C[C@H]3CCC[C@@H](C2)N3C2CCCCCCCCC2)c1=O` [Compound 18], the pIC50 in experiment [1], in experiment [2], in experiment [3], in experiment [4] and in experiment [5] was under 4.70 in each case.
In the case of `O=C(O)C(=NOCCO)c1nc2ccccc2n([C@H]2C[C@H]3CC[C@@H](C2)N3C2CC3CCCCC(C3)C2)c1=O` (stereo partly shown) [Compound 19], the pIC50 in experiment [1], in experiment [2], in experiment [3], in experiment [4] and in experiment [5] was under 4.70 in each case.
As to `CO/N=C(\C(=O)O)c1nc2ccccc2n([C@H]2C[C@H]3CC[C@@H](C2)N3C2CC3CCCCC(C3)C2)c1=O` (stereo partly drawn) [Compound 20, (Z)-2-(4-((1R,3R)-8-(bicyclo[4.3.1]decan-8-yl)-8-azabicyclo[3.2.1]octan-3-yl)-3-oxo-3,4-dihydroquinoxalin-2-yl)-2-(methoxyimino)acetic acid], the pIC50 in experiment [1], in experiment [2], in experiment [3], in experiment [4] and in experiment [5] was under 4.70 in each case.
Consider `CC(=NOCC(=O)O)c1nc2ccccc2n(C2CC3CCC(C2)N3C2CC3CCCCC(C3)C2)c1=O` (stereo not shown) [Compound 22], for which the pIC50 in experiment [1], in experiment [2], in experiment [3], in experiment [4] and in experiment [5] was under 4.70 each time.
For the compound `CC[C@@H]1C[C@H]2CC(N3[C@@H]4CCC[C@H]3CC(n3c(=O)c(/C(CCC(=O)O)=N/OC)nc5ccccc53)C4)C[C@@H](C1)C2` (stereo partly shown) [Compound 25], the pIC50 in experiment [1], in experiment [2], in experiment [3] and in experiment [4] was under 4.70 in each case.
Turning to `CCO/N=C(\CCC(=O)O)c1nc2ccccc2n([C@H]2C[C@H]3CCC[C@@H](C2)N3C2CC3CC(CC)CC(C3)C2)c1=O` (stereo partly shown) [Compound 26], the pIC50 in experiment [1], in experiment [2], in experiment [3] and in experiment [4] was under 4.70 each time.
As to `CCN(CC)CCO/N=C(\CCC(=O)O)c1nc2ccccc2n(C2C[C@H]3CCC[C@@H](C2)N3C2C[C@@H]3C[C@@H](C)C[C@H](C2)C3)c1=O` (stereo partly shown) [Compound 27], the pIC50 in experiment [1] is under 4.70; in experiment [2] it was 5.05; in experiment [3], under 4.70; in experiment [4], 5.06.
In the case of `CC1CC2CC(C1)CC(N1[C@@H]3CCC[C@H]1C[C@@H](n1c(=O)c(/C(CCC(=O)O)=N/OCCCN(C)C)nc4ccccc41)C3)C2` (stereo partly shown) [Compound 28], the pIC50 in experiment [1] was under 4.70; in experiment [2] it was 5.21; in experiment [3] it was under 4.70; in experiment [4], 5.52.
Regarding `CC1CC2CC(C1)CC(N1[C@@H]3CCC[C@H]1C[C@@H](n1c(=O)c(/C(CCC(=O)O)=N/OCCN(C)C)nc4ccccc41)C3)C2` (stereo partly shown) [Compound 29], the negative-log IC50 (pIC50) in experiment [1] is under 4.70; in experiment [2] it was under 4.70; in experiment [3] it was under 4.70; in experiment [4], 4.94.
`CCC1CC2CC(C1)CC(N1[C@@H]3CCC[C@H]1C[C@@H](n1c(=O)c(/C(CCC(=O)O)=N/OCCN(C)C)nc4ccccc41)C3)C2` (stereo partly shown) [Compound 34]: the pIC50 is under 4.70 in experiment [1], 4.76 in experiment [2], 4.79 in experiment [3] and under 4.70 in experiment [4].
For `CC[C@@H]1C[C@H]2CC(N3[C@@H]4CCC[C@H]3CC(n3c(=O)c(/C(CCC(=O)O)=N/OCCCN(C)C)nc5ccccc53)C4)C[C@@H](C1)C2` (stereo partly shown) [Compound 35], the negative-log IC50 (pIC50) in experiment [1], in experiment [2], in experiment [3] and in experiment [4] was under 4.70 throughout.
